Results reported in PMC4719581, “Tankyrase inhibition impairs directional migration and invasion of lung cancer cells by affecting microtubule dynamics and polarity signals” (BMC Biology, 2016).
pIC50: −log10 of the molar value.

Molecular target: T1, TNKS2 (tankyrase 2) (Homo sapiens, UniProt Q9H2K2)
T1 construct: recombinant His-tagged human TNKS2 poly(adenosine diphosphate)-ribose polymerase (PARP) domain, baculovirus-expressed
T1 sequence (Q9H2K2 946-1162 limits assumed): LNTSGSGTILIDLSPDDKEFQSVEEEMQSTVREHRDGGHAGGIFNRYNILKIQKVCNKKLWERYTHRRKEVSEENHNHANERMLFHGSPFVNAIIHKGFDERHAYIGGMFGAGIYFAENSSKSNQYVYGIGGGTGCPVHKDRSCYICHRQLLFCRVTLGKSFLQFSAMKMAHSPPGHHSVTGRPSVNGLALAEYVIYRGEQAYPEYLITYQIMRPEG
Test: auto-PARsylation assay with purified PARP domain on Ni2+-coated Flashplate, radioactive scintillation readout
Type: biochemical

How did the pIC50 turn out when `CCc1cc2ccc(C(C)(C#N)Cc3cccc(C#N)c3)cc2[nH]c1=O` (single isomer, unassigned) [JNJ-BJ, (R or S)-3-[2-cyano-2-(3-ethyl-2-oxo-1H-quinolin-7-yl)propyl]benzonitrile] was run?
The pIC50 was 6.89.
